From the supplement of paper PMC10307832

Columns and labels:
Assay in all cases: relative viability (nuclei count vs DMSO), 5 days (fraction); higher = more cells survive
HOP-62 = system: HOP-62
Outline: (§1)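 Cells from lung cancer lines were seeded into 1536-well plates and, one day later, dosed by pin tool. Treatments were either a single drug or a fixed dose of an anchor drug with five library-drug doses (not always all listed) in √10 steps. After 5 days, nuclei were stained in a one-step fixation (final 0.05% Triton X-100, 1% formaldehyde, 1 ug/ml Hoechst) and counted on 4× images, and relative viability is the treated-to-vehicle nuclei ratio, as the median of duplicate plates.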

COR-L 105 = system: COR-L 105
Outline: as §1

LXF-289 = system: LXF-289
Outline: as §1

LCLC-97TM1 = system: LCLC-97TM1
Outline: as §1

NCI-H1944 = system: NCI-H1944
Outline: as §1

NCI-H2085 = system: NCI-H2085
Outline: as §1

NCI-H1793 = system: NCI-H1793
Outline: as §1

UMC-11 = system: UMC-11
Outline: as §1

LC-2-ad = system: LC-2-ad
Outline: as §1

NCI-H1915 = system: NCI-H1915
Outline: as §1

NCI-H1755 = system: NCI-H1755
Outline: as §1

NCI-H2170 = system: NCI-H2170
Outline: as §1

HCC-78 = system: HCC-78
Outline: as §1

EPLC-272H = system: EPLC-272H
Outline: as §1

SK-LU-1 = system: SK-LU-1
Outline: as §1

NCI-H1975 = system: NCI-H1975
Outline: as §1

NCI-H358 = system: NCI-H358
Outline: as §1

LU99A = system: LU99A
Outline: as §1

HCC-366 = system: HCC-366
Outline: as §1

NCI-H460 = system: NCI-H460
Outline: as §1

A-427 = system: A-427
Outline: as §1

NCI-H1792 = system: NCI-H1792
Outline: as §1

CC1(C)CCC(c2ccc(Cl)cc2)=C(CN2CCN(c3ccc(C(=O)NS(=O)(=O)c4ccc(N[C@H](CCN5CCOCC5)CSc5ccccc5)c(S(=O)(=O)C(F)(F)F)c4)cc3)CC2)C1 [Navitoclax] + CS(=O)(=O)CCNCc1ccc(-c2ccc3ncnc(Nc4ccc(OCc5cccc(F)c5)c(Cl)c4)c3c2)o1 [Lapatinib] (partner 2 µM)
relative viability (HOP-62; first compound 0.005 µM): 0.924 | relative viability (HOP-62; first compound 0.01581 µM): 1.12 | relative viability (HOP-62; first compound 0.05 µM): 0.777 | relative viability (HOP-62; first compound 0.1581 µM): 0.947 | relative viability (HOP-62; first compound 0.5 µM): 0.972 | relative viability (COR-L 105; first compound 0.005 µM): 0.335 | relative viability (COR-L 105; first compound 0.01581 µM): 0.407 | relative viability (COR-L 105; first compound 0.05 µM): 0.307 | relative viability (COR-L 105; first compound 0.1581 µM): 0.282 | relative viability (COR-L 105; first compound 0.5 µM): 0.333 | relative viability (LXF-289; first compound 0.005 µM): 0.9 | relative viability (LXF-289; first compound 0.01581 µM): 0.91 | relative viability (LXF-289; first compound 0.05 µM): 0.864 | relative viability (LXF-289; first compound 0.1581 µM): 0.901 | relative viability (LXF-289; first compound 0.5 µM): 0.902 | relative viability (LCLC-97TM1; first compound 0.005 µM): 0.884 | relative viability (LCLC-97TM1; first compound 0.01581 µM): 1.21 | relative viability (LCLC-97TM1; first compound 0.05 µM): 0.865 | relative viability (LCLC-97TM1; first compound 0.1581 µM): 0.856 | relative viability (LCLC-97TM1; first compound 0.5 µM): 1.17 | relative viability (NCI-H1944; first compound 0.005 µM): 0.869 | relative viability (NCI-H1944; first compound 0.01581 µM): 0.871 | relative viability (NCI-H1944; first compound 0.05 µM): 0.629 | relative viability (NCI-H1944; first compound 0.1581 µM): 0.788 | relative viability (NCI-H1944; first compound 0.5 µM): 0.833 | relative viability (NCI-H2085; first compound 0.005 µM): 0.754 | relative viability (NCI-H2085; first compound 0.01581 µM): 0.895 | relative viability (NCI-H2085; first compound 0.05 µM): 0.692 | relative viability (NCI-H2085; first compound 0.1581 µM): 0.822 | relative viability (NCI-H2085; first compound 0.5 µM): 0.814 | relative viability (NCI-H1793; first compound 0.005 µM): 0.601 | relative viability (NCI-H1793; first compound 0.01581 µM): 0.779 | relative viability (NCI-H1793; first compound 0.05 µM): 0.467 | relative viability (NCI-H1793; first compound 0.1581 µM): 0.843 | relative viability (NCI-H1793; first compound 0.5 µM): 0.557 | relative viability (UMC-11; first compound 0.005 µM): 0.862 | relative viability (UMC-11; first compound 0.01581 µM): 1.02 | relative viability (UMC-11; first compound 0.05 µM): 0.747 | relative viability (UMC-11; first compound 0.1581 µM): 0.858 | relative viability (UMC-11; first compound 0.5 µM): 0.481 | relative viability (LC-2-ad; first compound 0.005 µM): 0.936 | relative viability (LC-2-ad; first compound 0.01581 µM): 1.02 | relative viability (LC-2-ad; first compound 0.05 µM): 0.898 | relative viability (LC-2-ad; first compound 0.1581 µM): 1.01 | relative viability (LC-2-ad; first compound 0.5 µM): 0.96 | relative viability (NCI-H1915; first compound 0.005 µM): 0.915 | relative viability (NCI-H1915; first compound 0.01581 µM): 0.953 | relative viability (NCI-H1915; first compound 0.05 µM): 0.819 | relative viability (NCI-H1915; first compound 0.1581 µM): 0.862 | relative viability (NCI-H1915; first compound 0.5 µM): 0.868 | relative viability (NCI-H1755; first compound 0.005 µM): 1.04 | relative viability (NCI-H1755; first compound 0.01581 µM): 1.13 | relative viability (NCI-H1755; first compound 0.05 µM): 0.836 | relative viability (NCI-H1755; first compound 0.1581 µM): 0.984 | relative viability (NCI-H1755; first compound 0.5 µM): 1.02 | relative viability (NCI-H2170; first compound 0.005 µM): 0.275 | relative viability (NCI-H2170; first compound 0.01581 µM): 0.283 | relative viability (NCI-H2170; first compound 0.05 µM): 0.312 | relative viability (NCI-H2170; first compound 0.1581 µM): 0.285 | relative viability (NCI-H2170; first compound 0.5 µM): 0.26 | relative viability (HCC-78; first compound 0.005 µM): 0.704 | relative viability (HCC-78; first compound 0.01581 µM): 0.987 | relative viability (HCC-78; first compound 0.1581 µM): 0.75 | relative viability (HCC-78; first compound 0.5 µM): 0.76 | relative viability (EPLC-272H; first compound 0.005 µM): 0.904 | relative viability (EPLC-272H; first compound 0.1581 µM): 0.906 | relative viability (EPLC-272H; first compound 0.5 µM): 0.881 | relative viability (SK-LU-1; first compound 0.005 µM): 0.849 | relative viability (SK-LU-1; first compound 0.01581 µM): 1.12 | relative viability (SK-LU-1; first compound 0.05 µM): 0.886 | relative viability (SK-LU-1; first compound 0.1581 µM): 0.896 | relative viability (SK-LU-1; first compound 0.5 µM): 0.753 | relative viability (NCI-H1975; first compound 0.005 µM): 0.859 | relative viability (NCI-H1975; first compound 0.01581 µM): 1.02 | relative viability (NCI-H1975; first compound 0.05 µM): 1.23 | relative viability (NCI-H1975; first compound 0.1581 µM): 0.8 | relative viability (NCI-H1975; first compound 0.5 µM): 0.893 | relative viability (NCI-H358; first compound 0.005 µM): 0.481 | relative viability (NCI-H358; first compound 0.01581 µM): 0.601 | relative viability (NCI-H358; first compound 0.05 µM): 0.397 | relative viability (NCI-H358; first compound 0.1581 µM): 0.482 | relative viability (NCI-H358; first compound 0.5 µM): 0.583 | relative viability (LU99A; first compound 0.005 µM): 0.985 | relative viability (LU99A; first compound 0.01581 µM): 1.19 | relative viability (LU99A; first compound 0.05 µM): 0.977 | relative viability (LU99A; first compound 0.1581 µM): 1.04 | relative viability (LU99A; first compound 0.5 µM): 1.07 | relative viability (HCC-366; first compound 0.005 µM): 1 | relative viability (HCC-366; first compound 0.01581 µM): 1.16 | relative viability (HCC-366; first compound 0.05 µM): 0.348 | relative viability (HCC-366; first compound 0.1581 µM): 1.04 | relative viability (HCC-366; first compound 0.5 µM): 1.08 | relative viability (NCI-H460; first compound 0.005 µM): 0.909 | relative viability (NCI-H460; first compound 0.01581 µM): 0.917 | relative viability (NCI-H460; first compound 0.05 µM): 1.09 | relative viability (NCI-H460; first compound 0.1581 µM): 0.892 | relative viability (NCI-H460; first compound 0.5 µM): 0.905 | relative viability (A-427; first compound 0.005 µM): 1.05 | relative viability (A-427; first compound 0.01581 µM): 0.956 | relative viability (A-427; first compound 0.05 µM): 0.825 | relative viability (A-427; first compound 0.1581 µM): 1.05 | relative viability (A-427; first compound 0.5 µM): 1.06 | relative viability (NCI-H1792; first compound 0.005 µM): 0.901 | relative viability (NCI-H1792; first compound 0.01581 µM): 1.05 | relative viability (NCI-H1792; first compound 0.05 µM): 0.662 | relative viability (NCI-H1792; first compound 0.1581 µM): 0.938 | relative viability (NCI-H1792; first compound 0.5 µM): 0.878
